Test results: patent publication US20100196907A1, “MARKERS TO PREDICT AND MONITOR RESPONSE TO AURORA KINASE B INHIBITOR THERAPY” (ABBOTT LABORATORIES, priority 2009, published 2010)
Each block holds one compound with its values, some of them ahead of it.

Assays:
[1] = tested on: SW620 colon carcinoma cells; experiment: selection of SW620 cells in 1 μM AZD1152 HQPA; type: cell-based, human; conditions: after 5 passages
Procedure: All cells were maintained at 37° C. in 5% CO2. […] Less than 0.01% of cells survived this treatment after 5 passages (data not shown). […] In the drug-resistant SW620 derivative (hereafter referred to as SW620^ABCB1/3), ABCB1, which encodes MDR1, was the most highly overexpressed gene on the array, and was identified by two distinct probe sets (FIG. 1A, inset). […] Among the gene set that encodes known small molecule transporters, ABCB1 and ABCB4 are the only two that show highly differential expression (FIG. 1A). The apparent co-upregulation of ABCB1 and ABCB4 was curious given that these genes lie juxtaposed within a common genomic locus on the long arm of chromosome 7 (7q21.1).

SW620 cells = experiment: histone H3 phosphorylation immunoblot, SW620; type: cell-based, human
Procedure: (§1) SW620 and SW620^ABCB1/3 cells were washed and allowed to grow in drug-free medium overnight. […] The lysates were then probe-sonicated for 10 seconds then clarified by centrifugation at 15,000 g for 15 minutes at 4° C. After treatment with SDS-sample buffer, protein extracts were resolved on NuPAGE Bis-Tris 4-12% gels (Invitrogen (Carlsbad, Calif.)). Samples were electrotransferred to PVDF membranes (Invitrogen (Carlsbad, Calif.)), incubated with primary antibody overnight, and developed using Pierce Dura-Signal chemiluminescence reagents (Pierce, Rockford, Ill.), or Odyssey infrared imaging system from LI-COR Biosciences (Lincoln, Nebr.).

SW620^ABCB1/3 cells [2] = experiment: histone H3 phosphorylation immunoblot, SW620^ABCB1/3; type: cell-based, human
Procedure: as §1

SW620^ABCB1/3 cells [3] = experiment: intracellular drug concentration by LC-MS; type: in vitro ADME, human; conditions: 1 μM for 4 hours
Procedure: SW620 and SW620^ABCB1/3 cells were washed and allowed to grow in drug-free medium overnight. […] Cytosolic drug accumulation was determined by LC-MS analysis. Briefly, cells were rinsed once with PBS and extracted in cell lysis buffer. The medium, PBS wash, and cell lysate were treated with 2 volumes of acidified MeOH. Crude whole-cell lysates were then clarified by centrifugation at 15000 g for 15 minutes at 4° C. yielding an insoluble cell pellet and cytosol. The insoluble cell pellet was diluted 1:10 with 50% acetonitrile and centrifuged at 11,000 g for 5 minutes.

SW620 tumors = experiment: intratumor pharmacokinetics, SW620 xenografts; type: in vivo, mice; conditions: single i.p. 100 mg kg^−1
Procedure: (§2) C.B.-17 scid-bg (scid-bg) or C.B.-17 scid (scid) mice were obtained from Charles River Laboratories (Wilmington, Mass., USA) at 5-6 weeks of age and used for studies when greater than 8 weeks of age and/or about 20 grams in size. All animal studies were conducted in a specific pathogen-free environment in accordance with the Internal Institutional Animal Care and Use Committee (IACUC), accredited by the American Association of Laboratory Animal Care under conditions that meet or exceed the standards set by the United States Department of Agriculture Animal Welfare Act, Public Health Service policy on humane care and use of animals and the NIH guide on laboratory animal welfare. Overt signs of dehydration, lack of grooming, lethargy, greater than 15% weight loss as well as tumor volume greater then 20% body weight were used to determine tumor end point. SW620 cell lines were obtained from the ATCC (Manassas, Va.) and cultured according to their recommendations without antibiotics and routinely tested for Mycoplasma and confirmed to be microbe-free by infectious microbe PCR amplification test (IMPACT; Missouri Research Animal Diagnostic Laboratory, Columbia, Mo.) prior to in vivo inoculation. […] Two bisecting diameters were measured with calipers and tumor volumes were estimated from the formula: (length×width^2)/2. […]

SW620^ABCB1/3 tumors = experiment: intratumor pharmacokinetics, SW620^ABCB1/3 xenografts; type: in vivo, mice
Procedure: as §2

SW620 xenografts = experiment: tumor histone H3 phosphorylation, SW620 xenografts; type: in vivo, mice
Procedure: as §1, with “Nebr.). C.B.-17 scid-bg (scid-bg) or C.B.-17 scid (scid) mice were obtained from Charles River Laboratories (Wilmington, Mass., USA) at 5-6 weeks of age and used for studies when greater than 8 weeks of age and/or about 20 grams in size. […] Two bisecting diameters were measured with calipers and tumor volumes were estimated from the formula: (length×width^2)/2. […]” for “Nebr.).”

SW620^ABCB1/3 xenografts = experiment: tumor histone H3 phosphorylation, SW620^ABCB1/3 xenografts; type: in vivo, mice
Procedure: as §1, with “Nebr.). C.B.-17 scid-bg (scid-bg) or C.B.-17 scid (scid) mice were obtained from Charles River Laboratories (Wilmington, Mass., USA) at 5-6 weeks of age and used for studies when greater than 8 weeks of age and/or about 20 grams in size. […] Two bisecting diameters were measured with calipers and tumor volumes were estimated from the formula: (length×width^2)/2. […]” for “Nebr.).”

cell line panel = experiment: 7-day colony formation or viability, cell line panel; type: cell-based, human
Procedure: (§3) SW620^ABCB1/3 and the respective parental cell lines were washed and 500 cells/well were seeded into six-well plates in drug-free medium. Then, 24 hours later, compounds were diluted in DMEM or RPMI, added to the cells, which were cultured at 37° C. for 7-10 days. Cells were then fixed and stained with 0.2% crystal violet to visualize and count colonies.

SW620^ABCB1/3 = experiment: colony formation, SW620^ABCB1/3; type: cell-based, human
Procedure: as §3

HCT-15 = experiment: colony formation, HCT-15; type: cell-based, human
[4] = tested on: panel of 50 other kinases; conditions: cited from earlier work
[5] = human plasma; cited from earlier work
bone marrow = conditions: cited from earlier work
[6] = tested on: HCT-15 colon carcinoma xenografts; experiment: xenograft growth, HCT-15; type: in vivo, mice
HCT116 = experiment: xenograft growth, HCT116; type: in vivo, mice
[7] = tested on: DoHH-2 B-cell lymphoma xenografts; experiment: xenograft growth, DoHH-2; type: in vivo, mice
AsPC1 = experiment: colony formation, AsPC1; type: cell-based, human

drug in the cytosol compared to parental SW620 cells (SW620^ABCB1/3 cells [3]): Significantly less drug
period of tumor concentration above threshold (SW620 tumors): at least 24 hours
period of tumor concentration above threshold (SW620^ABCB1/3 tumors; SW620^ABCB1/3 tumors, single i.p. 100 mg kg^−1): ~6 h
overall tumor AUC compared to the parental cohort (SW620^ABCB1/3 tumors; single IP administration, 24-hour period post-dose): reduction in the overall tumor AUC
IC50 (SW620^ABCB1/3; Homo sapiens): 2000 nM
IC50 (HCT-15; Homo sapiens): 1400 nM
SMILES: CCN(CCO)CCCOc1ccc2c(Nc3cc(CC(=O)Nc4cccc(F)c4)[nH]n3)ncnc2c1 [AZD1152 HQPA]
cells that survived treatment [1]: Less than 0.01%
intrinsic potency (histone H3 phosphorylation) (SW620 cells): 20 nM
intrinsic potency (histone H3 phosphorylation) (SW620^ABCB1/3 cells [2]; SW620^ABCB1/3): 2000 nM
more drug required to inhibit histone H3 phosphorylation than the parental line (SW620^ABCB1/3 cells [2]; SW620^ABCB1/3 vs parental SW620, 90 minutes): approximately 100 fold
minimum threshold intratumor concentration to inhibit histone H3 phosphorylation (SW620 xenografts; SW620 xenografts, potency x fold loss in 50% (v/v) mouse plasma): 0.1 µM
inhibition of Aurora B (histone H3 phosphorylation) in tumors (SW620 xenografts; parental SW620 xenografts, single dose 100 mg kg^−1 i.p.): Sustained inhibition
inhibition of histone H3 phosphorylation in tumors (SW620^ABCB1/3 xenografts; SW620^ABCB1/3 tumors, single dose 100 mg kg^−1 i.p.): transient inhibition
minimum threshold intratumor concentration to inhibit histone H3 phosphorylation (SW620^ABCB1/3 xenografts; SW620^ABCB1/3 xenografts, potency x fold loss in 50% (v/v) mouse plasma): 10 µM
IC50 (cell line panel; Homo sapiens, most (sensitive) cell lines of the panel): 4 to 15 nM
activity against a panel of 50 other kinases [4]: inactive

SMILES: CCN(CCCOc1ccc2c(Nc3cc(CC(=O)Nc4cccc(F)c4)n[nH]3)ncnc2c1)CCOP(=O)(O)O [AZD1152, 2-[[3-({4-[(5-{2-[(3-Fluorophenyl)amino]-2-oxoethyl}-1H-pyrazol-3-yl)amino]-quinazolin-7-yl}oxy)propyl](ethyl)amino)ethyl dihydrogen phosphate]
conversion of prodrug to active drug [5]: rapidly converted to the active drug
reversibility of myelosuppression (bone marrow; following cessation of AZD1152 treatment): fully reversible
myelosuppression (bone marrow; secondary to inhibition of proliferation of the bone marrow): transient myelosuppression

SMILES: O=C(O)c1ccc(Nc2ncc3c(n2)-c2ccc(Cl)cc2C(c2c(F)cccc2F)=NC3)cc1 [MLN8054, 4-{[9-choloro-7-(2,6-difluorophenyl)-5H-pyrimido[5,4-D][2]benzazepin-2-yl]amino}-benzoic acid]
activity profile in the cell line panel (cell line panel; sensitive vs ABCB1-overexpressing lines): No apparent loss in potency

SMILES: C/C=C/C[C@@H](C)C(=O)[C@H]1C(=O)N[C@@H](C(C)C)C(=O)N(C)CC(=O)N(C)[C@@H](CC(C)C)C(=O)N[C@@H](C(C)C)C(=O)N(C)[C@@H](CC(C)C)C(=O)N[C@@H](C)C(=O)N[C@H](C)C(=O)N(C)[C@@H](CC(C)C)C(=O)N(C)[C@@H](CC(C)C)C(=O)N(C)[C@@H](C(C)C)C(=O)N1C [PSC-833]
reversal of resistance to AZD1152 HQPA (SW620^ABCB1/3 cells [2]; 1 μM PSC-833 for 2 hours prior to AZD1152 HQPA): effective in reversing the resistance

SMILES: Cc1cc(Nc2cc(N3CCN(C)CC3)nc(Sc3ccc(NC(=O)C4CC4)cc3)n2)[nH]n1 [VX-680, cyclopropane carboxylic acid {4-[4-(4-methyl-piperazin-1-yl)-6-(5-methyl-2H-pyrazol-3-ylamino)-pyrimidin-2-ylsulphanyl]-phenyl}-amide]
xenograft growth under treatment [6]: unabated
tumor growth inhibition (HCT116): significant tumor growth inhibition
tumor growth inhibition [7]: significant tumor growth inhibition

SMILES: CC(=O)O[C@H]1C(=O)[C@@]2(C)[C@H]([C@H](OC(=O)c3ccccc3)[C@]3(O)C[C@H](OC(=O)[C@H](O)[C@@H](NC(=O)c4ccccc4)c4ccccc4)C(C)=C1C3(C)C)[C@]1(OC(C)=O)CO[C@@H]1C[C@@H]2O [paclitaxel]
relative sensitivity (SW620^ABCB1/3): relatively insensitive
relative sensitivity (HCT-15): relatively insensitive
relative sensitivity (AsPC1): not AsPC1 were relatively insensitive
